Reference: patent US6429317B1, “Indane derivatives for antipsychotic compositions” (priority 1996, dated 2002)

biological target: muscarinic receptor; assay: not given; conditions: first of three sites (high affinity); read-out: affinity of site labeled by 3H-Oxo; cited from earlier work

| Compound | Kd [nM] |
| --- | --- |
| C[N+](C)(C)CC#CCN1CCCC1=O [^3H-Oxo, ^3H-Oxotremorine-M] | 1.8 |

same assay, conditions: second of three sites (medium affinity); read-out: affinity of site labeled by 3H-Oxo; cited from earlier work

| Compound | Kd [nM] |
| --- | --- |
| C[N+](C)(C)CC#CCN1CCCC1=O [^3H-Oxo, ^3H-Oxotremorine-M] | 20 |

same assay, conditions: third of three sites (low affinity); read-out: affinity of site labeled by 3H-Oxo; cited from earlier work

| Compound | Kd [nM] |
| --- | --- |
| C[N+](C)(C)CC#CCN1CCCC1=O [^3H-Oxo, ^3H-Oxotremorine-M] | 3000 |

biological target: T1, human m4 receptors (Homo sapiens, UniProt P08173); assay: Cyclic AMP accumulation in pertussis toxin-treated CHO m4 cells; format: cell-based; conditions: stimulation of cyclic AMP production in CHO-m4 cells, forskolin present
T1 construct: expressed in transfected cells; host or cells: CHO K1
Protocol: Cyclic AMP Accumulation in Pertussis Toxin-Treated CHO m4 Cells.
CHO K1 cells transfected with human m4 receptors were grown to near confluency in T-150 flasks using Dulbecco's Modified Eagle Medium (DMEM) containing 10% fetal bovine serum. Cells were detached with 0.05% trypsin, […], and were suspended in medium containing 100 ng/ml pertussis toxin. Cells were plated at 30,000 cells per well into 96 well plates. Eighteen to twenty hours later the medium was removed and the cells were washed with serum-free medium. Attached cells were incubated at 37° C. for one hour after addition of […] of serum free DMEM containing 1 mM 3-isobutyl-1-methylxanthine and 1 mM forskolin plus or minus drugs being tested. Incubations were terminated with […] per well of serum free DMEM containing 0.3% triton-X-100. After stopping incubations the plates were allowed to sit for 20 minutes to extract cAMP and samples were then diluted 2.5-fold and were assayed using the scintillation proximity assay of Amersham (Arlington Heights, Ill).
Representative results from the M4 assay are as follows:
Stimulation of cyclic AMP production in CHO-m4cells.

T1 sequence (P08173 whole entry): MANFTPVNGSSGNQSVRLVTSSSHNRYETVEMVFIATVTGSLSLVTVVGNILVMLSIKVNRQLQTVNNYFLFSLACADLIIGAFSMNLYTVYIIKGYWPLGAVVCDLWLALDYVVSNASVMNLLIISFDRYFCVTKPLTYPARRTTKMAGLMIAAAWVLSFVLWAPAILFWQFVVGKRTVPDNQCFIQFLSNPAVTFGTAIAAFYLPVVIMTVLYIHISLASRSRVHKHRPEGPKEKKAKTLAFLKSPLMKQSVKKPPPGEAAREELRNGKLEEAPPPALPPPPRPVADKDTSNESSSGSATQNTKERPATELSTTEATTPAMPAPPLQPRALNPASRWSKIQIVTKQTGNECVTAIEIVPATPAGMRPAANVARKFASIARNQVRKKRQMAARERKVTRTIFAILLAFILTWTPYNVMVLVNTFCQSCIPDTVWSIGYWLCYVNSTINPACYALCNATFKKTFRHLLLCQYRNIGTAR

| Compound | % Maximum Stimulation Compared to Oxotremorine-M [%] |
| --- | --- |
| CN(C)C=Nc1ccc2c(c1)C(NC(=O)c1ccc(C(F)(F)F)cc1)C(O)C2 (stereo not drawn) [Compound 75] | 6 |
| CN(C)C=Nc1ccc2c(c1)C(NC(=O)c1cccnc1Cl)C(O)C2 (stereo not drawn) [Compound 73] | 11 |
| CCCCc1ccc(C(=O)NC2c3cc(N=CN4CCCC4)ccc3CC2O)cc1 (stereo not drawn) [Compound 45] | <20 |
| O=C(NC1c2cc(N=CN3CCCCC3)ccc2CC1O)c1cc(F)cc(F)c1 (stereo not drawn) [Compound 98] | 73 |
| CN(C)C=Nc1ccc2c(c1)C(NC(=O)c1ccccc1)C(O)C2 (stereo not drawn) [Compound 57] | 5 |
| CN(C)C=Nc1ccc2c(c1)C(NC(=O)C(F)(F)F)C(O)C2 (stereo not drawn) [Compound 66] | 0 |
| CN(C)C=Nc1ccc2c(c1)C(NC(=O)c1cccc(C#N)c1)C(O)C2 (stereo not drawn) [Compound 61] | 39 |
| CN(C)C=Nc1ccc2c(c1)C(NC(=O)C1CCCC1)C(O)C2 (stereo not drawn) [Compound 62] | 27 |
| O=C(NC1c2cc(N=CN3CCCCC3)ccc2CC1O)c1cccc(Cl)c1Cl (stereo not drawn) [Compound 88] | 52 |
| CC(=Nc1ccc2c(c1)C(NC(=O)c1ccc(Cl)c(Cl)c1)C(O)C2)N(C)C (stereo not drawn) [Compound 76] | 130 |
| CCc1ccc(C(=O)NC2c3cc(N=CN(C)C)ccc3CC2O)cc1 (stereo not drawn) [Compound 67] | 7 |
| CN(C)C=Nc1ccc2c(c1)C(NC(=O)c1ccc(Cl)nc1)C(O)C2 (stereo not drawn) [Compound 74] | 8 |
| CN(C)C=Nc1ccc2c(c1)C(NS(=O)(=O)c1ccc(Cl)c(Cl)c1)C(O)C2 (stereo not drawn) [Compound 72] | 4 |
| O=C(NC1c2cc(N=CN3CCCCC3)ccc2CC1O)c1ccc(Cl)c(Cl)c1 (stereo not drawn) [Compound 77] | 214 |
| CN(C)C=Nc1ccc2c(c1)C(NC(=O)c1cc(Cl)cc(Cl)c1)C(O)C2 (stereo not drawn) [Compound 58] | 74 |
| O=C(NC1c2cc(N=CN3CCCC3)ccc2CC1O)c1c(Cl)cccc1Cl (stereo not drawn) [Compound 46] | 154 |
| O=C(NC1c2cc(N=CN3CCCCC3)ccc2CC1O)c1cc(Cl)cc(Cl)c1 (stereo not drawn) [Compound 97] | 36 |
| CN(C)C=Nc1ccc2c(c1)C(NC(=O)c1cc(F)cc(C(F)(F)F)c1)C(O)C2 (stereo not drawn) [Compound 64] | 52 |
| CN(C)C=Nc1ccc2c(c1)C(NC(=O)c1cc(C(F)(F)F)cc(C(F)(F)F)c1)C(O)C2 (stereo not drawn) [Compound 60] | 100 |
| O=C(NC1c2cc(N=CN3CCCC3)ccc2CC1O)c1c(Cl)cc(Cl)cc1Cl (stereo not drawn) [Compound 47] | <20 |
| CCCCc1ccc(C(=O)NC2c3cc(N=CN(C)C)ccc3CC2O)cc1 (stereo not drawn) [Compound 70] | 18 |
| CN(C)C=Nc1ccc2c(c1)C(NC(=O)c1sccc1Cl)C(O)C2 (stereo not drawn) [Compound 68] | 0 |
| CN(C)C=Nc1ccc2c(c1)C(NC(=O)c1cc(F)c(F)c(F)c1)C(O)C2 (stereo not drawn) [Compound 65] | 30 |
| CN(C)C=Nc1ccc2c(c1)C(NC(=O)c1ccc3ccccc3c1)C(O)C2 (stereo not drawn) [Compound 63] | 13 |
| CN(C)C=Nc1ccc2c(c1)C(NC(=O)c1cccc3ccccc13)C(O)C2 (stereo not drawn) [Compound 71] | 95 |
| CN(C)C=Nc1ccc2c(c1)C(NC(=O)c1cc3ccccc3s1)C(O)C2 (stereo not drawn) [Compound 69] | 14 |
| CCCCOc1ccc(C(=O)NC2c3cc(N=CN(C)C)ccc3CC2O)cc1 (stereo not drawn) [Compound 59] | 22 |
